# The source made the active and inactive calls. The rule behind the calls is not given here.
# Assays:
# [1] = molecular target: T1, 5-hydroxytryptamine receptor 2A (Homo sapiens, UniProt P28223); experiment: Inhibition of 5HT2A receptor (unknown origin) expressed in HEK293 cells at 1 uM by FLIPR Calcium 6 dye based assay relative to control; format: functional, cell-based
# [2] = Drug concentration in plasma of ICR mouse at 5 mg/kg, iv measured at 1 hr; format: ADME, organism-based
# [3] = Drug concentration in brain of ICR mouse at 5 mg/kg, iv measured at 1 hr; format: ADME, organism-based; conditions: read-out: Ct
# [4] = molecular target: T1, 5-hydroxytryptamine receptor 2A; experiment: Inhibition of 5HT2A receptor (unknown origin) expressed in HEK293 cells by FLIPR Calcium 6 dye based assay; format: functional, cell-based
# [5] = Stability in human liver microsomes assessed as parent compound remaining measured after 30 mins; format: ADME, Microsome; conditions: read-out: Stability
# Cytochrome P450 2C19 = Cytochrome P450 2C19 (Homo sapiens, UniProt P33261); experiment: Inhibition of CYP2C19 (unknown origin) relative to control; format: ADME
# Mus musculus [6] = experiment: Reduction in hepatic steatosis in high fat diet-induced NAFLD C57BL6/J mouse model assessed as reduction in serum ALT level at 1 mg/kg, ip measured after 8 weeks; format: functional, organism-based
# [7] = molecular target: 5-hydroxytryptamine receptor 6 (Homo sapiens) (UniProt P50406); experiment: Inhibition of 5HT6 receptor (unknown origin) at 1 uM relative to control
# Mus musculus [8] = experiment: Reduction in hepatic steatosis in high fat diet-induced NAFLD C57BL6/J mouse model assessed as decrease in size of adipocytes in inguinal white adipose tissue at 1 mg/kg, ip measured after 8 weeks by H and E staining based analysis; format: functional, organism-based
# Mus musculus [9] = experiment: Reduction in hepatic steatosis in high fat diet-induced NAFLD C57BL6/J mouse model assessed as reduction in serum cholesterol level at 1 mg/kg, ip measured after 8 weeks; format: functional, organism-based
# [10] = molecular target: T2, 5-hydroxytryptamine receptor 2C (Homo sapiens) (UniProt P28335); experiment: Inhibition of 5HT2C receptor (unknown origin) at 1 uM relative to control
# T2 sequence (whole entry): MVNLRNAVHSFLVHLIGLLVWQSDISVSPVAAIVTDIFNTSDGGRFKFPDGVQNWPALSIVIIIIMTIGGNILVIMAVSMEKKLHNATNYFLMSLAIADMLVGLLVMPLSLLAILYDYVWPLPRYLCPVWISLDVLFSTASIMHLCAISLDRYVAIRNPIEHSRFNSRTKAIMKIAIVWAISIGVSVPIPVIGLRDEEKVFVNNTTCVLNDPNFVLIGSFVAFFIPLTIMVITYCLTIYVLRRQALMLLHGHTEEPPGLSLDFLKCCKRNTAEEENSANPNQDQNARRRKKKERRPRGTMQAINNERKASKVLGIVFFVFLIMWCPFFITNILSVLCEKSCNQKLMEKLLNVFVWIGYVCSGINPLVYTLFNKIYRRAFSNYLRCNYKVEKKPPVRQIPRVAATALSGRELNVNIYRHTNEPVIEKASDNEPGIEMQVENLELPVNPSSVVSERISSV
# [11] = Stability in mouse liver microsomes assessed as parent compound remaining measured after 30 mins; format: ADME, Microsome; conditions: read-out: Stability
# Cytochrome P450 2C9 = Cytochrome P450 2C9 (Homo sapiens, UniProt P11712); experiment: Inhibition of CYP2C9 (unknown origin) relative to control; format: ADME
# [12] = Stability in rat liver microsomes assessed as parent compound remaining measured after 30 mins; format: ADME, Microsome; conditions: read-out: Stability
# Mus musculus [13] = experiment: Reduction in hepatic steatosis in high fat diet-induced NAFLD C57BL6/J mouse model assessed as reduction in hepatic triglyceride level at 1 mg/kg, ip measured after 8 weeks by colorimetric assay; format: functional, organism-based
# Cytochrome P450 1A2 = molecular target: T3, Cytochrome P450 1A2 (Homo sapiens, UniProt P05177); experiment: Inhibition of CYP1A2 (unknown origin) relative to control; format: ADME
# T3 sequence (P05177 whole entry): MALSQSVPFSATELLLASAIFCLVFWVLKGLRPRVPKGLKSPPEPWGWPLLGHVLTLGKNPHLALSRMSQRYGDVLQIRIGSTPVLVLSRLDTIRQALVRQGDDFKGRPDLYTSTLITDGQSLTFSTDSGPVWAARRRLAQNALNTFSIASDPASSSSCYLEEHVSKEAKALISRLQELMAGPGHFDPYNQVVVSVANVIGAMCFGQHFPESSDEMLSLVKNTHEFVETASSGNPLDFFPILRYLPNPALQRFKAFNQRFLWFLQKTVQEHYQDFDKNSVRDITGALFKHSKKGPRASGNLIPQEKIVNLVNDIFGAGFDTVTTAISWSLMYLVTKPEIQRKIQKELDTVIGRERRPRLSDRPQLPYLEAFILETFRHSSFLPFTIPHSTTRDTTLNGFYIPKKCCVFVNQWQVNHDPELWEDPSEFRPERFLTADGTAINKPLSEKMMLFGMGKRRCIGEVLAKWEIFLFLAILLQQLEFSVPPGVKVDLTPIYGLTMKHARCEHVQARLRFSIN
# [14] = molecular target: 5-hydroxytryptamine receptor 5A (Homo sapiens) (UniProt P47898); experiment: Inhibition of 5HT5A receptor (unknown origin) at 1 uM relative to control
# Mus musculus [15] = experiment: Reduction in hepatic steatosis in high fat diet-induced NAFLD C57BL6/J mouse model assessed as reduction in serum AST level at 1 mg/kg, ip measured after 8 weeks; format: functional, organism-based
# Mus musculus [16] = experiment: Reduction in hepatic steatosis in high fat diet-induced NAFLD C57BL6/J mouse model assessed as reduction in fat body mass at 1 mg/kg, ip measured after 8 weeks; format: functional, organism-based
# Mus musculus [17] = experiment: Reduction in hepatic steatosis in high fat diet-induced NAFLD C57BL6/J mouse model at 1 mg/kg, ip measured after 8 weeks; format: functional, organism-based
# Mus musculus [18] = experiment: Reduction in hepatic steatosis in high fat diet-induced NAFLD C57BL6/J mouse model assessed as increase in lean body mass at 1 mg/kg, ip measured after 8 weeks; format: functional, organism-based
# [19] = molecular target: Serotonin 3 (5-HT3) receptor (Homo sapiens) (UniProt P46098+A5X5Y0+O95264+Q70Z44+Q8WXA8); experiment: Inhibition of 5HT3 receptor (unknown origin) at 1 uM relative to control; format: protein-complex assay
# Cytochrome P450 2D6 = Cytochrome P450 2D6 (Homo sapiens, UniProt P10635); experiment: Inhibition of CYP2D6 (unknown origin) relative to control; format: ADME
# hERG = hERG (Homo sapiens, UniProt Q12809); experiment: Inhibition of hERG at 10 uM relative to control; format: toxicity
# Mus musculus [20] = experiment: Reduction in hepatic steatosis in high fat diet-induced NAFLD C57BL6/J mouse model assessed as improved glucose tolerance at 1 mg/kg, ip measured after 8 weeks by glucometer analysis; format: functional, organism-based
# [21] = molecular target: T4, 5-hydroxytryptamine receptor 1A (Homo sapiens) (UniProt P08908); experiment: Inhibition of 5HT1A receptor (unknown origin) at 1 uM relative to control
# T4 sequence (whole entry): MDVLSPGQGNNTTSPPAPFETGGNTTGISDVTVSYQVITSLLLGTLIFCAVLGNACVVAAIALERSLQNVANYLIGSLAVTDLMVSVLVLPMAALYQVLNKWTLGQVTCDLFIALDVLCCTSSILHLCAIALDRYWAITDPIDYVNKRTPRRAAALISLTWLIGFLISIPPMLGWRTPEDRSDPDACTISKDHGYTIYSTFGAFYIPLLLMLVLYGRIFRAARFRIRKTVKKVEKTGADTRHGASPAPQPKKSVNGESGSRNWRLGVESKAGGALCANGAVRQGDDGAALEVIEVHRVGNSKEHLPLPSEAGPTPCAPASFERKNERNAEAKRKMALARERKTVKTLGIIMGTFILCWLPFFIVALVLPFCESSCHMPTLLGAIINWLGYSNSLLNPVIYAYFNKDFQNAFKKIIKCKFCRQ
# Mus musculus [22] = experiment: Reduction in hepatic steatosis in high fat diet-induced NAFLD C57BL6/J mouse model assessed as increase in multilocular adipocytes at 1 mg/kg, ip measured after 8 weeks by H and E staining based analysis; format: functional, organism-based
# Mus musculus [23] = experiment: Reduction in hepatic steatosis in high fat diet-induced NAFLD C57BL6/J mouse model assessed as reduction in lobular inflammation at 1 mg/kg, ip measured after 8 weeks by H and E staining analysis; format: functional, organism-based
# Mus musculus [24] = experiment: Reduction in hepatic steatosis in high fat diet-induced NAFLD C57BL6/J mouse model assessed as decrease in size of lipid droplet in brown adipose tissue at 1 mg/kg, ip measured after 8 weeks by H and E staining based analysis; format: functional, organism-based
# [25] = molecular target: 5-hydroxytryptamine receptor 7 (Homo sapiens) (UniProt P34969); experiment: Inhibition of 5HT7 receptor (unknown origin) at 1 uM relative to control
# Cytochrome P450 3A4 = Cytochrome P450 3A4 (Homo sapiens, UniProt P08684); experiment: Inhibition of CYP3A4 (unknown origin) relative to control; format: ADME
# Mus musculus [26] = experiment: Reduction in hepatic steatosis in high fat diet-induced NAFLD C57BL6/J mouse model assessed as body weight gain at 1 mg/kg, ip measured after 8 weeks; format: functional, organism-based
# [27] = molecular target: 5-hydroxytryptamine receptor 4 (Homo sapiens) (UniProt Q13639); experiment: Inhibition of 5HT4E receptor (unknown origin) at 1 uM relative to control
# Mus musculus [28] = experiment: Reduction in hepatic steatosis in high fat diet-induced NAFLD C57BL6/J mouse model assessed as reduction in adipose tissue inflammation at 1 mg/kg, ip measured after 8 weeks by H and E staining based analysis; format: functional, organism-based
# Mus musculus [29] = experiment: Reduction in hepatic steatosis in high fat diet-induced NAFLD C57BL6/J mouse model assessed as decrease in size of adipocytes in epididymis white adipose tissue at 1 mg/kg, ip measured after 8 weeks by H and E staining based analysis; format: functional, organism-based
# T1 sequence (P28223 whole entry): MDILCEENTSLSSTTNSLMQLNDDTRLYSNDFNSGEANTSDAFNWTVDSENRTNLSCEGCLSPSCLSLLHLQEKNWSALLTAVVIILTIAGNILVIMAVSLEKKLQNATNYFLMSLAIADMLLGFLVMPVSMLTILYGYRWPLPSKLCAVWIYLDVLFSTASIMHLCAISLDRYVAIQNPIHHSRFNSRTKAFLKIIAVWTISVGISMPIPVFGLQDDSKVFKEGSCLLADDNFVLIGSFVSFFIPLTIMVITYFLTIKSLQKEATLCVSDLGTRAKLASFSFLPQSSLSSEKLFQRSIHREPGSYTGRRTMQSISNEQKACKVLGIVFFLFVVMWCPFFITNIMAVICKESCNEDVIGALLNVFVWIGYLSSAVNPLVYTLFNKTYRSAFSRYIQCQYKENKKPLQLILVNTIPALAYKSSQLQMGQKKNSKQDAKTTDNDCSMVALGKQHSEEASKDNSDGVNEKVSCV
# Sequence of 5-hydroxytryptamine receptor 5A (Homo sapiens) (P47898 whole entry): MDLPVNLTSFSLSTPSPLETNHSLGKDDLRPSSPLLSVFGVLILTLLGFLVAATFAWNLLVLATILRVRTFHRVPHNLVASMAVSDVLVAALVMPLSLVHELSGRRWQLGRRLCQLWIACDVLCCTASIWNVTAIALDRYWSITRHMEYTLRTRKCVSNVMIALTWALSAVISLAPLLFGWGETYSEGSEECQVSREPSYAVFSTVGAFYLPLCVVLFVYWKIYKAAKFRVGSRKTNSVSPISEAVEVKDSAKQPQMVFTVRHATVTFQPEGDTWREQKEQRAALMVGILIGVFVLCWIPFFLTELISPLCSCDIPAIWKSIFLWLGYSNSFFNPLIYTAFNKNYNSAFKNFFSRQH
# Sequence of Cytochrome P450 2C9 (P11712 whole entry): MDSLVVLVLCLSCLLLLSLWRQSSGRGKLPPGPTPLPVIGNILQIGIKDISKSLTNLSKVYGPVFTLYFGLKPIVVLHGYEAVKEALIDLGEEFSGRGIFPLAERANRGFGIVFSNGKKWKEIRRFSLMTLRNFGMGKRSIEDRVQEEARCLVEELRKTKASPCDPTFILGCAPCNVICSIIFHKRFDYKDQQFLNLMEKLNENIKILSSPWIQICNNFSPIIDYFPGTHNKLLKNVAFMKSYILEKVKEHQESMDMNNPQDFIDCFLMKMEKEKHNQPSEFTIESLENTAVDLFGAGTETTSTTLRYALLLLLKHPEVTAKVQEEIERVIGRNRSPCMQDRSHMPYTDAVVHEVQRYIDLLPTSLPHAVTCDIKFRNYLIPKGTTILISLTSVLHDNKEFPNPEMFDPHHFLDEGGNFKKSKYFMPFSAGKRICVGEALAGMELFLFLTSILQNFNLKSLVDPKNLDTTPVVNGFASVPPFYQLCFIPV
# Sequence of hERG (Q12809 whole entry): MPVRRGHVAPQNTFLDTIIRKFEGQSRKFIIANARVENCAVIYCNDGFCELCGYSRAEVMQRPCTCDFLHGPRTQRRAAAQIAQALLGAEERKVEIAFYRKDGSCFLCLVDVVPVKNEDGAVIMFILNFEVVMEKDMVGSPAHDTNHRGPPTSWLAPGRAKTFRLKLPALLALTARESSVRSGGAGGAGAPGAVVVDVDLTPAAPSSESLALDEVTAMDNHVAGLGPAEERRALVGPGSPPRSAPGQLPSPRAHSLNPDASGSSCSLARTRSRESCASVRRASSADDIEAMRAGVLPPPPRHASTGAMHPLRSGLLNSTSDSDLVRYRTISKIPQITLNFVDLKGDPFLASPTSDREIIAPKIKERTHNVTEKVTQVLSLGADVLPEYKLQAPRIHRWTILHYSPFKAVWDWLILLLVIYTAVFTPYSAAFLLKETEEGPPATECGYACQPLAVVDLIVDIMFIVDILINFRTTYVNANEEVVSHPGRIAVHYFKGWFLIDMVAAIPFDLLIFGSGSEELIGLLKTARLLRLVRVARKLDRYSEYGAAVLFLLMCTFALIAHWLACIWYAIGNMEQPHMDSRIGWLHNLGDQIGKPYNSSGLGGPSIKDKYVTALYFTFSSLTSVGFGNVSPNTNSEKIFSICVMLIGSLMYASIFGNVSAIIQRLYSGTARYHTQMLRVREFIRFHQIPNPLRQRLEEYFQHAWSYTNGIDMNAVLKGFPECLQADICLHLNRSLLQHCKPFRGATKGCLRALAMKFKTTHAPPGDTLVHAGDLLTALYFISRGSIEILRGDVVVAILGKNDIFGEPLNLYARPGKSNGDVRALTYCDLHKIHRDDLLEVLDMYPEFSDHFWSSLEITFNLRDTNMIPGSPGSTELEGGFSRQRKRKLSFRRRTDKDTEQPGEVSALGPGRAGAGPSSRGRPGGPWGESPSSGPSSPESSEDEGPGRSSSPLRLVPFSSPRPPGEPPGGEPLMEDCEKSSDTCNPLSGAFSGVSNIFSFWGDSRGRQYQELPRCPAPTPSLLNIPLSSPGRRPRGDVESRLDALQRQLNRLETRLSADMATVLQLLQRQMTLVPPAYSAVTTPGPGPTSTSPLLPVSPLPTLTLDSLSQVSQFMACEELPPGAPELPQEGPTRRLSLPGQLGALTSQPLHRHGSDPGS
# Sequence of 5-hydroxytryptamine receptor 6 (Homo sapiens) (P50406 whole entry): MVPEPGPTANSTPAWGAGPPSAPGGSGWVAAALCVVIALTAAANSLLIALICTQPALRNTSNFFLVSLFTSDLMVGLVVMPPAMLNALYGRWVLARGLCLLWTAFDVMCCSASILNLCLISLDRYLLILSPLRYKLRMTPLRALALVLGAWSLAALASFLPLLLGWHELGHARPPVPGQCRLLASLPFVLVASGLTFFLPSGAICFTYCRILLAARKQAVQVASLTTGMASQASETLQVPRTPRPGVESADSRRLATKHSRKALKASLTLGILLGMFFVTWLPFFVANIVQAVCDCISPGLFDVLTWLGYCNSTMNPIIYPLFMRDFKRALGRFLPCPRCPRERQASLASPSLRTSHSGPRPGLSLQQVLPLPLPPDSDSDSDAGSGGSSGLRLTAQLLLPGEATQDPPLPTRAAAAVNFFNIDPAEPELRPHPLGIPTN
# Sequence of 5-hydroxytryptamine receptor 7 (Homo sapiens) (P34969 whole entry): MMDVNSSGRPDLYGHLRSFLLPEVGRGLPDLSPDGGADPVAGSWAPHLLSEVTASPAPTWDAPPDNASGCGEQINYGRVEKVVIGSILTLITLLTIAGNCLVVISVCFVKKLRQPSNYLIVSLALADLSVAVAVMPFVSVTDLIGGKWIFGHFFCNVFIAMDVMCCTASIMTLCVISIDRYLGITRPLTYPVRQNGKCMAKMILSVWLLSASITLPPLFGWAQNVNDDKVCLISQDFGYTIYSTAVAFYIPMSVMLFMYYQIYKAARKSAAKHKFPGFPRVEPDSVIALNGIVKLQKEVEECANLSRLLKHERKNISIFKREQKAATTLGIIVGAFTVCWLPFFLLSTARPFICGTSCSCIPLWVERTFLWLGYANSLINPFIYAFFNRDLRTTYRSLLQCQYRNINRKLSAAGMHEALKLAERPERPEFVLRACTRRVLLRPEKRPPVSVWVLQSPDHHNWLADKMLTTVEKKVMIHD
# Sequence of 5-hydroxytryptamine receptor 4 (Homo sapiens) (Q13639 whole entry): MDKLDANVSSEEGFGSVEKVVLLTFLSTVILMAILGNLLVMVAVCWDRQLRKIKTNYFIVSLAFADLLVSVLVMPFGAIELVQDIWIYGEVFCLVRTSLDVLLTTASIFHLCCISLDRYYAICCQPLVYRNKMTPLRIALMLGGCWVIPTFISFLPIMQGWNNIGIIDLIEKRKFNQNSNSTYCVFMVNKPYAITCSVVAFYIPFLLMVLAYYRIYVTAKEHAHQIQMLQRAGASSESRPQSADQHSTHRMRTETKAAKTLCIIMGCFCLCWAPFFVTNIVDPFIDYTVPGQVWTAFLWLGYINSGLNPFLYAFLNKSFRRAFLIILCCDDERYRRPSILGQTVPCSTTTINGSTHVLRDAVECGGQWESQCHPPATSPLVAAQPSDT
# Sequence of Cytochrome P450 2D6 (P10635 whole entry): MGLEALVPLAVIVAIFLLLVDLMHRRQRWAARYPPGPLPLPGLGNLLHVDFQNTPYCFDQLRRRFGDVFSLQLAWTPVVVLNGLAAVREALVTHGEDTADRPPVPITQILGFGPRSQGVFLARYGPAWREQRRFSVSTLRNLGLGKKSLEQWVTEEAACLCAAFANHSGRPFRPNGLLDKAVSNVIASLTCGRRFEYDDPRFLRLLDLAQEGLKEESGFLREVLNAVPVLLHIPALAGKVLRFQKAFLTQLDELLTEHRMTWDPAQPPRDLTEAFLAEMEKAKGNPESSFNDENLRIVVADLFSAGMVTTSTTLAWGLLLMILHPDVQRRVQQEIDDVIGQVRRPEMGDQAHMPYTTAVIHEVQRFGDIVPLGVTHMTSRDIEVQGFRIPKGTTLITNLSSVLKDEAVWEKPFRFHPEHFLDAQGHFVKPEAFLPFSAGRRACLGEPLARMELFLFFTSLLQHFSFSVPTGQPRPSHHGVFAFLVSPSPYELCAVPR
# Sequence of Cytochrome P450 3A4 (P08684 whole entry): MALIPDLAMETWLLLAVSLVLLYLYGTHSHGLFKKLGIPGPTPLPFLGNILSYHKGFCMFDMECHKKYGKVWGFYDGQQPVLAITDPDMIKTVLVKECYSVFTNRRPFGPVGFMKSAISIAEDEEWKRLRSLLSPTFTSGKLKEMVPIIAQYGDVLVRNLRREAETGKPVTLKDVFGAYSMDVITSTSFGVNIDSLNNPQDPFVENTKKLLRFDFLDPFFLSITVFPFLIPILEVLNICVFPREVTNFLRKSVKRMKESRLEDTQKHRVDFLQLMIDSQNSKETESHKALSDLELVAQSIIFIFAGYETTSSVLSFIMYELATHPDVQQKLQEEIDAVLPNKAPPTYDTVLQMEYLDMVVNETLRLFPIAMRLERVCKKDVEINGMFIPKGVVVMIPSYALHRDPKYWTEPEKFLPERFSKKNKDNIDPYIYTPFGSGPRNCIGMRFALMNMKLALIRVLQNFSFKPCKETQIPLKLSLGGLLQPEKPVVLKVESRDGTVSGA
compound,measurement,setting,value
O=C(O)c1ccc(OCCN2CCN(c3nsc4ccccc34)CC2)cc1,inhibition,[1],33.3%
Cl.Cl.N[C@@H](Cc1ccc(OCCN2CCN(c3nsc4ccccc34)CC2)cc1)C(=O)O,inhibition,[1],73.9%
same,concentration at 1 h,[2],165 ng/mL
same,concentration at 1 h,[3],< 7.8 ng/mL
N[C@@H](Cc1ccc(OCCN2CCC(C(=O)c3ccc(F)cc3)CC2)cc1)C(=O)O,inhibition,[1],35.1%
N[C@@H](Cc1ccc(OCCN2CCN(c3cccc(Cl)c3Cl)CC2)cc1)C(=O)O,inhibition,[1],43.2%
O=C(O)CCc1ccc(OCCN2CCN(c3nsc4ccccc34)CC2)cc1,inhibition,[1],43.4%
same,concentration at 1 h,[2],114 ng/mL
same,concentration at 1 h,[3],< 7.8 ng/mL
Cl.Cl.N[C@@H](Cc1ccc(OCC(O)CN2CCC(c3noc4cc(F)ccc34)CC2)cc1)C(=O)O (stereo partly drawn),inhibition,[1],90.8%
same,IC50,[4],2.15 nM
same,concentration at 1 h,[2],1230 ng/mL
same,concentration at 1 h,[3],< 7.8 ng/mL
Cl.Cl.N[C@@H](Cc1ccc(OCCCN2CCC(c3noc4cc(F)ccc34)CC2)cc1)C(=O)O,inhibition,[1],92%
same,remaining at 0.5 h,[5],> 99%
same,inhibition (INH),Cytochrome P450 2C19,< 1%
same,Activity,Mus musculus [6],Active
same,inhibition,[7],4%
same,Activity,Mus musculus [8],Active
same,Activity,Mus musculus [9],inactive
same,inhibition,[10],98%
same,remaining at 0.5 h,[11],> 99%
same,inhibition (INH),Cytochrome P450 2C9,1.8%
same,remaining at 0.5 h,[12],98.5%
same,Activity,Mus musculus [13],Active
same,inhibition (INH),Cytochrome P450 1A2,4.3%
same,inhibition,[14],16%
same,Activity,Mus musculus [15],Active
same,Activity,Mus musculus [16],Active
same,Activity,Mus musculus [17],Active
same,Activity,Mus musculus [18],Active
same,inhibition,[19],22%
same,inhibition (INH),Cytochrome P450 2D6,31.9%
same,inhibition at 10 µM,hERG,30.9%
same,Activity,Mus musculus [20],Active
same,inhibition,[21],68%
same,Activity,Mus musculus [22],Active
same,IC50,[4],0.17 nM
same,concentration at 1 h,[2],901 ng/mL
same,Activity,Mus musculus [23],Active
same,concentration at 1 h,[3],< 7.8 ng/mL
same,Activity,Mus musculus [24],Active
same,inhibition,[25],24%
same,inhibition (INH),Cytochrome P450 3A4,< 1%
same,Activity,Mus musculus [26],Active
same,inhibition,[27],50.4%
same,Activity,Mus musculus [28],Active
same,Activity,Mus musculus [29],Active
N[C@@H](Cc1ccc(OCCCCN2CCC(c3noc4cc(F)ccc34)CC2)cc1)C(=O)O,inhibition,[1],91.4%
same,IC50,[4],3.6 nM
O=C(O)Cc1ccc(OCCN2CCN(c3nsc4ccccc34)CC2)cc1,inhibition,[1],9.53%
N[C@H](Cc1ccc(OCCN2CCN(c3nsc4ccccc34)CC2)cc1)C(=O)O,inhibition,[1],53.4%
N[C@@H](Cc1ccc(OCCN2CCC(c3noc4cc(F)ccc34)CC2)cc1)C(=O)O,inhibition,[1],74.8%
